# Assay results reported in patent US11541152B2, “Medical device with drug-eluting coating on modified device surface” (Lutonix, Inc., priority 2018, dated 2023).
# Columns and labels:
# [1] = BSA added; cited from earlier work
# [2] = test system: protein (albumin); details: cited from earlier work
# [3] = stability under ethylene oxide sterilization, heating and aging; reaction with paclitaxel; details: for reaction with paclitaxel: ethylene oxide sterilization, heating, aging
# [4] = octanol/water; cited from earlier work
# [5] = cited from earlier work
compound,measurement,setting,value
CC(=O)O[C@H]1C(=O)[C@@]2(C)[C@H]([C@H](OC(=O)c3ccccc3)[C@]3(O)C[C@H](OC(=O)[C@H](O)[C@@H](NC(=O)c4ccccc4)c4ccccc4)C(C)=C1C3(C)C)[C@]1(OC(C)=O)CO[C@@H]1C[C@@H]2O [paclitaxel],increase of solubility in PBS with the addition of BSA,[1],over 20 fold
CO[C@H]1C[C@@H]2CC[C@@H](C)[C@@](O)(O2)C(=O)C(=O)N2CCCC[C@H]2C(=O)O[C@H]([C@H](C)C[C@@H]2CC[C@@H](O)[C@H](OC)C2)CC(=O)[C@H](C)/C=C(\C)[C@@H](O)[C@@H](OC)C(=O)[C@H](C)C[C@H](C)/C=C/C=C/C=C/1C [rapamycin],protein bound,[2],92%
same,share of protein binding that is to albumin,[2]; primarily to albumin,97%
OCCNCCO [diethanolamine],reaction with paclitaxel,[3],reacted with paclitaxel
COc1ccc(O)c(C(C)(C)C)c1 [Butylated hydroxyanisole],log P,[4],1.31
Sudan Red,solubility in aqueous solvent,[5],insoluble in aqueous solvent
O=C(O)c1ccccc1 [benzoic acid],reaction with paclitaxel,[3],reacted with paclitaxel
same,"stability under ethylene oxide sterilization, heating, and aging process",[3]; formulated with paclitaxel,not stable
O=C1O[C@H]([C@@H](O)CO)C(O)=C1O [ascorbic acid],reaction with paclitaxel,[3],reacted with paclitaxel
PEG-20 sorbitan monolaurate [Tween 20],log P,[4],about 3.0
